Tests used:
[1] = Cell viability assay (AlamarBlue) in HepAD38 cells; conditions: human
[2] = system: HBV; assay: Determination of HBV DNA from the supernatants of HepAD38 cells (anti-HBV activity); format: cell-based, hepatitis B virus; conditions: Hepatitis B virus, 144 h; HBV DNA in HepAD38 supernatant, day 6, qPCR; read-out: Cell Activity (EC50)
Procedure, shortened: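 HepAD38 cells, tetracycline withdrawn to induce HBV, treated with serial half-log compound dilutions; on day 6 HBV DNA purified from filtered supernatant and quantified by real-time PCR against HBV plasmid standards; EC50 from relative copy numbers by non-linear regression, three experiments in triplicate.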

[3] = biological target: T1, HBV core protein (UniProt P03146); assay: Biochemical capsid assembly assay (fluorescence quenching); parameters: species or system hepatitis B virus; conditions: read-out: Assembly Activity (IC50); BODIPY-FL labelled core protein, 300 μM NaCl, read 6 min after start
T1 construct: fused on or other part: BODIPY-FL maleimide label on the C-terminal Cys150
T1 sequence (P03146 whole entry, looked up, the tested form may be a part): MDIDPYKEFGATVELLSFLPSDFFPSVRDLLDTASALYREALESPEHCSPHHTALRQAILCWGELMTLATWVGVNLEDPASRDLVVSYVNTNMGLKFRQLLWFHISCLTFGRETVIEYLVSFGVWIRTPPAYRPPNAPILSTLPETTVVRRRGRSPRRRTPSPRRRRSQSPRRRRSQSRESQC
Procedure, shortened: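 Purified E. coli-expressed HBV core protein (aa 1-149 plus Cys150), BODIPY-FL maleimide-labelled, at 1.0-2.0 μM in 50 mM HEPES pH 7.5 with 0.5% DMSO was used. Compounds were tested at 8 concentrations (0.5-log dilutions from 100, 31.6 or 10 μM). Assembly was started with NaCl ([…]), and fluorescence quenching was read after 6 min (ex 477/em 525 nm). EC50 was determined by non-linear regression.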

Row | Structure (SMILES) | CC50 at 6 days [1] | EC50 [2] | IC50 [3]
1 | COCC1(N(C)C(=O)c2n[nH]c3c2CN(C(=O)c2cc4cc(F)c(F)cc4[nH]2)CC3)CC1 [Example 300, 5-(5,6-difluoro-1H-indole-2-carbonyl)-N-[1-(methoxymethyl)cyclopropyl]-N-methyl-1H,4H,5H,6H,7H-pyrazolo[4,3-c]pyridine-3-carboxamide] | > 10 µM | < 1000 nM | < 5 µM
2 | COCC1(N(C)C(=O)c2n[nH]c3c2CN(C(=O)c2cc4c(C(F)(F)F)cccc4[nH]2)CC3)CC1 [Example 302, N-[1-(methoxymethyl)cyclopropyl]-N-methyl-5-[4-(trifluoromethyl)-1H-indole-2-carbonyl]-1H,4H,5H,6H,7H-pyrazolo[4,3-c]pyridine-3-carboxamide] | > 10 µM | < 1000 nM | < 5 µM
3 | COCC1(N(CC(F)F)C(=O)c2n[nH]c3c2CN(C(=O)c2cc4ccccc4[nH]2)CC3)CC1 [Example 303, N-(2,2-difluoroethyl)-5-(1H-indole-2-carbonyl)-N-[1-(methoxymethyl)cyclopropyl]-1H,4H,5H,6H,7H-pyrazolo[4,3-c]pyridine-3-carboxamide] | > 10 µM | < 1000 nM | < 5 µM
4 | COCC1(N(C(=O)c2n[nH]c3c2CN(C(=O)c2cc4ccccc4[nH]2)CC3)C(C)C)CC1 [Example 304, 5-(1H-indole-2-carbonyl)-N-[1-(methoxymethyl)cyclopropyl]-N-(propan-2-yl)-1H,4H,5H,6H,7H-pyrazolo[4,3-c]pyridine-3-carboxamide] | > 10 µM | < 1000 nM | < 5 µM
5 | COCC1(N(C)C(=O)c2n[nH]c3c2CN(C(=O)c2cc4c(F)cc(Cl)cc4[nH]2)CC3)CC1 [Example 305, 5-(6-chloro-4-fluoro-1H-indole-2-carbonyl)-N-[1-(methoxymethyl)cyclopropyl]-N-methyl-1H,4H,5H,6H,7H-pyrazolo[4,3-c]pyridine-3-carboxamide] | > 10 µM | < 1000 nM | < 5 µM
6 | COCC1(N(C)C(=O)c2n[nH]c3c2CN(C(=O)c2cc4c(Cl)ccc(F)c4[nH]2)CC3)CC1 [Example 306, 5-(4-chloro-7-fluoro-1H-indole-2-carbonyl)-N-[1-(methoxymethyl)cyclopropyl]-N-methyl-1H,4H,5H,6H,7H-pyrazolo[4,3-c]pyridine-3-carboxamide] | > 10 µM | < 1000 nM | < 5 µM
7 | COCC1(N(C)C(=O)c2n[nH]c3c2CN(C(=O)c2cc4c(F)c(F)cc(F)c4[nH]2)CC3)CC1 [Example 307, N-[1-(methoxymethyl)cyclopropyl]-N-methyl-5-(4,5,7-trifluoro-1H-indole-2-carbonyl)-1H,4H,5H,6H,7H-pyrazolo[4,3-c]pyridine-3-carboxamide] | > 10 µM | < 1000 nM | < 5 µM
8 | COCC1(N(C)C(=O)c2n[nH]c3c2CN(C(=O)c2cc4cccc(F)c4[nH]2)CC3)CC1 [Example 308, 5-(7-fluoro-1H-indole-2-carbonyl)-N-[1-(methoxymethyl)cyclopropyl]-N-methyl-1H,4H,5H,6H,7H-pyrazolo[4,3-c]pyridine-3-carboxamide] | > 10 µM | < 1000 nM | < 5 µM
9 | COCC1(N(C)C(=O)c2n[nH]c3c2CN(C(=O)c2cc4cc(F)cc(F)c4[nH]2)CC3)CC1 [Example 309, 5-(5,7-difluoro-1H-indole-2-carbonyl)-N-[1-(methoxymethyl)cyclopropyl]-N-methyl-1H,4H,5H,6H,7H-pyrazolo[4,3-c]pyridine-3-carboxamide] | > 10 µM | < 1000 nM | < 5 µM
10 | CN(C(=O)c1n[nH]c2c1CN(C(=O)c1cc3ccccc3[nH]1)CC2)C1(C(F)(F)F)CC1 [Example 310, 5-(1H-indole-2-carbonyl)-N-methyl-N-[1-(trifluoromethyl)cyclopropyl]-1H,4H,5H,6H,7H-pyrazolo[4,3-c]pyridine-3-carboxamide] | > 10 µM | 1000 to 25000 nM | < 100 µM
11 | CN(C(=O)c1n[nH]c2c1CN(C(=O)c1cc3ccccc3[nH]1)CC2)C1(c2ccccn2)CC1 [Example 311, 5-(1H-indole-2-carbonyl)-N-methyl-N-[1-(pyridin-2-yl)cyclopropyl]-1H,4H,5H,6H,7H-pyrazolo[4,3-c]pyridine-3-carboxamide] | > 10 µM | < 1000 nM | < 5 µM
12 | C#CCN(C)C(=O)c1n[nH]c2c1CN(C(=O)c1cc3ccccc3[nH]1)CC2 [Example 312, 5-(1H-indole-2-carbonyl)-N-methyl-N-(prop-2-yn-1-yl)-1H,4H,5H,6H,7H-pyrazolo[4,3-c]pyridine-3-carboxamide] | > 10 µM | < 1000 nM | < 5 µM
13 | COCC1(N(CC(F)(F)F)C(=O)c2n[nH]c3c2CN(C(=O)c2cc4ccccc4[nH]2)CC3)CC1 [Example 313, 5-(1H-indole-2-carbonyl)-N-[1-(methoxymethyl)cyclopropyl]-N-(2,2,2-trifluoroethyl)-1H,4H,5H,6H,7H-pyrazolo[4,3-c]pyridine-3-carboxamide] | > 10 µM | < 1000 nM | < 5 µM
14 | C#CCOCC1(N(C)C(=O)c2n[nH]c3c2CN(C(=O)c2cc4ccccc4[nH]2)CC3)CC1 [Example 315, 5-(1H-indole-2-carbonyl)-N-methyl-N-{1-[(prop-2-yn-1-yloxy)methyl]cyclopropyl}-1H,4H,5H,6H,7H-pyrazolo[4,3-c]pyridine-3-carboxamide] | > 10 µM | < 1000 nM | < 5 µM
15 | CN(Cc1cn(C)nn1)C(=O)c1n[nH]c2c1CN(C(=O)c1cc3ccccc3[nH]1)CC2 [Example 316, 5-(1H-indole-2-carbonyl)-N-methyl-N-[(1-methyl-1H-1,2,3-triazol-4-yl)methyl]-1H,4H,5H,6H,7H-pyrazolo[4,3-c]pyridine-3-carboxamide] | > 10 µM | 1000 to 25000 nM | < 5 µM
16 | C=Cc1scnc1-c1n[nH]c2c1CN(C(=O)c1cc3ccccc3[nH]1)CC2 [Example 317, 2-[3-(5-ethenyl-1,3-thiazol-4-yl)-1H,4H,5H,6H,7H-pyrazolo[4,3-c]pyridine-5-carbonyl]-1H-indole] | > 10 µM | < 1000 nM | < 5 µM
17 | CN(C(=O)c1n[nH]c2c1CN(C(=O)c1cc3ccccc3[nH]1)CC2)C1(COC(F)F)CC1 [Example 318, N-{1-[(difluoromethoxy)methyl]cyclopropyl}-5-(1H-indole-2-carbonyl)-N-methyl-1H,4H,5H,6H,7H-pyrazolo[4,3-c]pyridine-3-carboxamide] | > 10 µM | < 1000 nM | < 5 µM
18 | CN(C(=O)c1[nH]nc2c1CN(C(=O)c1cc3c(F)cccc3[nH]1)CC2)C1CC1 [Example 322, N-cyclopropyl-5-(4-fluoro-1H-indole-2-carbonyl)-N-methyl-2H,4H,5H,6H,7H-pyrazolo[4,3-c]pyridine-3-carboxamide] | > 10 µM | < 1000 nM | < 5 µM
19 | CN(C(=O)c1[nH]nc2c1CN(C(=O)c1cc3c(F)cc(F)cc3[nH]1)CC2)C1CC1 [Example 323, N-cyclopropyl-5-(4,6-difluoro-1H-indole-2-carbonyl)-N-methyl-2H,4H,5H,6H,7H-pyrazolo[4,3-c]pyridine-3-carboxamide] | > 10 µM | < 1000 nM | < 5 µM
20 | CN(C(=O)c1[nH]nc2c1CN(C(=O)c1cc3c(Cl)c(F)ccc3[nH]1)CC2)C1CC1 [Example 324, 5-(4-chloro-5-fluoro-1H-indole-2-carbonyl)-N-cyclopropyl-N-methyl-2H,4H,5H,6H,7H-pyrazolo[4,3-c]pyridine-3-carboxamide] | > 10 µM | < 1000 nM | < 5 µM
21 | CN(C(=O)c1[nH]nc2c1CN(C(=O)c1cc3ccc(Cl)cc3[nH]1)CC2)C1CC1 [Example 325, 5-(6-chloro-1H-indole-2-carbonyl)-N-cyclopropyl-N-methyl-2H,4H,5H,6H,7H-pyrazolo[4,3-c]pyridine-3-carboxamide] | > 10 µM | < 1000 nM | < 5 µM
22 | CN(C(=O)c1[nH]nc2c1CN(C(=O)c1cc3c(Cl)cccc3[nH]1)CC2)C1CC1 [Example 326, 5-(4-chloro-1H-indole-2-carbonyl)-N-cyclopropyl-N-methyl-2H,4H,5H,6H,7H-pyrazolo[4,3-c]pyridine-3-carboxamide] | > 10 µM | < 1000 nM | < 5 µM
23 | Cc1cc(F)cc2[nH]c(C(=O)N3CCc4n[nH]c(C(=O)N(C)C5CC5)c4C3)cc12 [Example 327, N-cyclopropyl-5-(6-fluoro-4-methyl-1H-indole-2-carbonyl)-N-methyl-2H,4H,5H,6H,7H-pyrazolo[4,3-c]pyridine-3-carboxamide] | > 10 µM | < 1000 nM | < 5 µM
24 | CCc1cccc2[nH]c(C(=O)N3CCc4n[nH]c(C(=O)N(C)C5CC5)c4C3)cc12 [Example 328, N-cyclopropyl-5-(4-ethyl-1H-indole-2-carbonyl)-N-methyl-2H,4H,5H,6H,7H-pyrazolo[4,3-c]pyridine-3-carboxamide] | > 10 µM | < 1000 nM | < 5 µM

— patent publication US11236087B2, “Highly active pyrazolo-piperidine substituted indole-2-carboxamides active against the hepatitis B virus (HBV)” (AiCuris GmbH & Co. KG, priority 2017, dated 2022)
